Values joined by “and” are separate entries in the source; they are usually repeats but may differ in a detail not shown here. Identical values can stand only once.
How the values were obtained:
[1] = tested on: human skin; test: Determination of moisture content in human skin; type: in vivo
Excerpt: 1. Subjects and Materials
One hundred and ten people were selected from the volunteers who participating in this test. They were females at the age of 30 to 55 with skin moisture content below 12%.
Solutions of Composition 1 to 7 prepared in this example were used except that the sterile water for medical use was replaced with warm water.
By skin moisture content, the subjects were randomly divided into 11 groups, i.e., a blank control group, administration groups 1 to 7 and negative control groups 1 to 3. The subjects in administration groups 1 to 7 respectively took 200 mL of the solution of Compositions 1 to 7 twice a day at 9 am and 9 pm while the subjects in the blank control group took 200 mL of warm water at the same time. In addition, the subjects in negative control groups 1 to 3 respectively took 200 mL of the solution of trehalose (0.15 g/mL), 200 mL of the solution of validamycin (0.3 mg/mL) and 200 mL of the solution of algal polysaccharides (0.15 g/mL). The administration lasted for 30 days. Skin moisture content was determined before administration and after administration. The determination was conducted in a spacious and well ventilated examination room. When the subjects were calm, the location to be determined was cleaned with sterile cotton ball soaked with distilled water. Fifteen minutes after the location was wiped dry, the skin moisture content was determined by skin moisture tester under the trademark of “KAKUSAN”.

[2] = tested on: healthy volunteers; test: Effect on blood glucose level in normal people; type: in vivo, human; settings: for effect on blood glucose level in normal people / Blood glucose level after administration: 200 mL oral; for Blood glucose level after administration / Blood glucose level before administration: individual healthy volunteers; for Blood glucose level before administration: fasting baseline
Procedure: Six healthy volunteers were fasted overnight and then were measured for fasting blood glucose. Thereafter, they were orally administered with 200 mL of the solution of Composition 1, or 200 mL of the solution of trehalose (0.15 g/mL), or 200 mL of the solution of validamycin (0.3 mg/mL), or 200 mL of distilled water, as stated in Table 3.2. The blood glucose level in every volunteer was tested before administration and 30 min, 60 min and 120 min post administration.

[3] = tested on: patients with type-II diabetes; test: Long-term experiment for treatment in human diabetics; type: in vivo; settings: for Blood glucose level after administration: 200 mL oral
Procedure: Six patients with type-II diabetes were fasted overnight and then measured for fasting blood glucose level. Then they were orally administered with 200 mL of the solution of Composition 1, or 200 mL of solution of trehalose (0.15 g/mL), or 200 mL of the solution of validamycin (0.3 mg/mL), or 200 mL of distilled water, as stated in Table 3.4. The blood glucose level in every patient was tested before administration and one day, one week, two weeks and one month post administration.

[4] = after administration, 200 mL twice a day for 30 days

| SMILES | Skin moisture content [1, 4] | Skin moisture content ([1]; before administration) | effect on blood glucose level in normal people [2] | Blood glucose level after administration ([2]; 30 min) | Blood glucose level after administration ([2]; 60 min) | Blood glucose level after administration ([2]; 120 min) | Blood glucose level before administration [2] | Blood glucose level after administration ([2]; 30 min, listed as Solution of validamycin) | Blood glucose level after administration ([2]; 60 min, listed as Solution of validamycin) | Blood glucose level after administration ([2]; 120 min, listed as Solution of validamycin) | Blood glucose level before administration ([2]; listed as Solution of validamycin) | Blood glucose level after administration ([3]; 1 month, individual type-II diabetics) | Blood glucose level after administration ([3]; 1 week, individual type-II diabetics) | Blood glucose level after administration ([3]; 2 weeks, individual type-II diabetics) | Blood glucose level after administration ([3]; 1 day, individual type-II diabetics) | Blood glucose level before administration ([3]; fasting baseline, individual type-II diabetics, long-term) | effect on blood glucose level in patients with type-II diabetes, long-term ([3]; up to one month) |
| --- | --- | --- | --- | --- | --- | --- | --- | --- | --- | --- | --- | --- | --- | --- | --- | --- | --- |
| OC[C@H]1O[C@H](O[C@H]2O[C@H](CO)[C@@H](O)[C@H](O)[C@H]2O)[C@H](O)[C@@H](O)[C@@H]1O [trehalose] | 8.52 ± 0.55% | 8.55 ± 0.68% | significantly raised blood glucose level | 9.3 mmol/L | 8.4 mmol/L | 7.1 mmol/L | 7.0 mmol/L |  |  |  |  |  |  |  |  |  |  |
| OCC1=C[C@H](N[C@H]2C[C@H](CO)[C@@H](O[C@@H]3O[C@H](CO)[C@@H](O)[C@H](O)[C@H]3O)[C@H](O)[C@H]2O)[C@H](O)[C@@H](O)[C@@H]1O [validamycin] | 8.35 ± 0.47% | 8.21 ± 0.98% | had not effect on the blood glucose level |  |  |  |  | 6.3 mmol/L and 6.7 mmol/L | 6.2 mmol/L and 6.6 mmol/L | 5.9 mmol/L and 5.3 mmol/L | 6.0 mmol/L and 5.3 mmol/L | 8.9 mmol/L | 9.0 mmol/L | 8.7 mmol/L | 8.7 mmol/L | 8.8 mmol/L | had no influence on blood glucose level |
